Like-named read-outs stand apart in the source and are kept apart here.
Tests used:
Huh-7.5 = experiment: assay validation with reference compounds, percent cell number in DENV2-infected Huh-7.5; conditions: percent cell number normalized against MOCK-infected Huh-7.5, DENV2-infected cells
Protocol: Acquired images were analyzed using our in-house developed image-mining platform (IM). This platform is designed to do high-content screening and directly access the database of images that were sequentially analyzed with specially designed algorithms developed as a customized plug-in to the IM platform. The results of all the analyses were stored in a centralized database. […] To define the percentage of dengue-infected cells and, conversely the non-infected cells, a modified watershed method was applied. Compared to the original watershed algorithm that uses the morphological gradient image, a weighted gradient image is used for the topographic surface, whose weights are defined as the ridge values computed from the eigen values of the original image. The percentage of non-infected cells, which is also defined as the percent inhibition or percent activity, is derived by using the formula: [1−(A488-positive cells/total cells)]×100%.
In both validation experiments, Huh-7.5 was mixed with DENV1, DENV2, DENV3 or DENV4 at a M.O.I. of 0.5 or VM only for MOCK-infection and dispensed in designated wells using the Thermo Scientific WellMate automated liquid dispenser. For the first validation experiment, the statistical reliability of the dengue HT/HCA was determined by calculating the Z'-factor for the percent infection or percent inhibition. Briefly, the Z'-factor of a defined parameter is calculated using the formula: 1−[(3σp+3σn)/(|μp−μn|)], where the μp, μn, σp and σn are the means (μ) and standard deviations (σ) of the positive (p) and negative (n) controls. For the second validation experiment, the reference compounds were prepared in 2-fold serial dilutions and dispensed in duplicate wells in the 384-well plate, followed by the Huh-7.5 and DENV mixture (M.O.I. 0.5). Percent infection, percent inhibition, and percent cell number were determined using the customized IM platform plug-in. Scatter-plot distribution was generated using TIBCO Spotfire 4.5.0 (TIBCO Software Inc., Somerville, MA). […] The top and bottom values of the reference compounds were unconstrained when the curve fittings of the 10-pt. DRCs were generated.
Similarly, the percent cell number was normalized based on the measured cell number in MOCK-infected (100% cell number) controls according to the formula: % cell number = (Cmeasured/μCMOCK-infect)×100%, where Cmeasured is the measured cell number in the test well and μCMOCK-infect is the average cell number in the MOCK-infected controls. The statistical validity of the dengue high-throughput screening was determined by calculating for the Z'-factor using the 0.5% DMSO-treatment and MOCK-infected Huh-7.5 as negative and positive controls, respectively. In addition, other parameters, including DRC of a reference compound, were used to evaluate the assay performance.

[1] = tested on: BR DEN2 01-01 infection of Huh-7.5; experiment: assay validation with reference compounds, 10-pt DRC of percent infection; type: cell-based, Dengue virus
Protocol: (§1) An immunofluorescence assay (IFA) used to detect dengue infection was optimized for the dengue HT/HCA. Briefly, cells were fixed with 4% (w/v) paraformaldehyde (PFA) for 20 min at room temperature (Rm T). PFA-fixed cells were treated with 0.25% (v/v) Triton-X for 20 min at Rm T. DENV-infected cells were detected by probing with 4G2 mAb prepared in blocking buffer: DPBS containing 5% FBS for 30 min at 37°C, followed by AlexaFluor-conjugated goat anti-mouse IgG (H+L) (Invitrogen Molecular Probes, USA) prepared in blocking buffer for 30 min at 37°C. Cell nuclei counterstained with 5 µg/mL 4′,6-diamidino-2-phenylindole (DAPI, Sigma-Aldrich, USA). Two washing cycles of DPBS was done after each step of the IFA. After the final washing, digital images were acquired using a high-throughput confocal fluorescence imaging system (Evotec Technologies High-Throughput Cell Analyzer Opera, Perkin Elmer, USA). The digital images were taken from 3 different fields of each well at 20× magnification.
(§2) Acquired images were analyzed using our in-house developed image-mining platform (IM). This platform is designed to do high-content screening and directly access the database of images that were sequentially analyzed with specially designed algorithms developed as a customized plug-in to the IM platform. The results of all the analyses were stored in a centralized database. […] One channel (DAPI-channel) captures the signal emitted by DAPI-stained nuclei at 450 nm, while the other channel (A488-channel) captures the signal emitted by the AlexaFluor 488 dye bound to the dengue E protein-antibody complexes confined in the cytoplasm of dengue-infected cells at 540 nm. To define the percentage of dengue-infected cells and, conversely the non-infected cells, a modified watershed method was applied. Compared to the original watershed algorithm that uses the morphological gradient image, a weighted gradient image is used for the topographic surface, whose weights are defined as the ridge values computed from the eigen values of the original image. The percentage of non-infected cells, which is also defined as the percent inhibition or percent activity, is derived by using the formula: [1−(A488-positive cells/total cells)]×100%.
In both validation experiments, Huh-7.5 was mixed with DENV1, DENV2, DENV3 or DENV4 at a M.O.I. of 0.5 or VM only for MOCK-infection and dispensed in designated wells using the Thermo Scientific WellMate automated liquid dispenser. For the first validation experiment, the statistical reliability of the dengue HT/HCA was determined by calculating the Z'-factor for the percent infection or percent inhibition. Briefly, the Z'-factor of a defined parameter is calculated using the formula: 1−[(3σp+3σn)/(|μp−μn|)], where the μp, μn, σp and σn are the means (μ) and standard deviations (σ) of the positive (p) and negative (n) controls. For the second validation experiment, the reference compounds were prepared in 2-fold serial dilutions and dispensed in duplicate wells in the 384-well plate, followed by the Huh-7.5 and DENV mixture (M.O.I. 0.5). Percent infection, percent inhibition, and percent cell number were determined using the customized IM platform plug-in. Scatter-plot distribution was generated using TIBCO Spotfire 4.5.0 (TIBCO Software Inc., Somerville, MA). The ten-point dose-response curves (10-pt DRCs) were plotted using the non-linear regression formula: log (inhibitor) vs. response – variable slope (4 parameters), available in GraphPad Prism 5.04 (GraphPad Software Inc., San Diego, CA). The top and bottom values of the reference compounds were unconstrained when the curve fittings of the 10-pt. DRCs were generated.

[2] = tested on: DENV4 (DEN4 TVP-360) infection in Huh-7.5; experiment: image-based dengue HT/HCA, 10-pt dose-response hit confirmation, DENV4; type: cell-based; conditions: Dengue virus, read-out: EC50 DENV4
Protocol: as §1, §2
(§3) The BioFocus kinase inhibitor library were screened against DENV1, DEN2, DENV3 and DENV4 at 10 µM in 0.5% (v/v) DMSO. MOCK-infected Huh-7.5 and IFN-α2A (500 U/mL) were used as positive controls, and the 0.5% DMSO vehicle was used as negative control. Four sets of 15 384-well plates (13 plates designated for test compounds and 2 plates designated for DMSO vehicle control) were used for the primary screening of the BioFocus kinase inhibitor library against each dengue serotype. Each of the 4,000 compounds in the library was tested in single wells. For data normalization and quality control of the screening, each test compound plate contained 16 replicates of the positive and negative controls. After dispensing the test compounds IFN-α2A and DMSO vehicle in the 384-well plates, Huh-7.5 was mixed with DENV1, DENV2, DENV3, or DENV4 to achieve a M.O.I. of 0.5 and dispensed at 5×10^3 cells/well using the Thermo Scientific WellMate automated liquid dispenser. For the MOCK-infected Huh-7.5, the cells were mixed with VM and dispensed under the same conditions as previously stated. Virus infection in the presence of the compounds proceeded at 37°C, 5% CO2 for 96 hrs. Compound activity based on percent inhibition and cell toxicity was assessed by IFA and IM analysis as described above. Scatter-plot distribution of the entire screening was generated using TIBCO Spotfire 4.5.0 (TIBCO Software Inc., Somerville, MA).
(§4) The calculated activity was normalized to a percent inhibition (PI) based on the MOCK-infected cells (100% activity, or zero infection) and dengue-infected cells (0% activity, or maximum measured infection percentage) controls according to the formula: [drawing 1] where: PImeasured - percent inhibition of test compound […]

[3] = tested on: DENV1 (Den1 BR/90) infection in Huh-7.5; experiment: image-based dengue HT/HCA, 10-pt dose-response hit confirmation, DENV1; type: cell-based; conditions: Dengue virus, read-out: EC50 DENV1
Protocol: as §1, §2, §3, §4

[4] = tested on: DENV3 (BR DEN3 290-02) infection in Huh-7.5; experiment: image-based dengue HT/HCA, 10-pt dose-response hit confirmation, DENV3; type: cell-based; conditions: Dengue virus, read-out: EC50 DENV3
Protocol: as §1, §2, §3, §4

[5] = compound toxicity, resazurin reduction assay in uninfected Huh-7.5; type: cell-based; conditions: human, uninfected Huh-7.5 cells, Huh-7.5 without viral infection, 10-pt DRC
Protocol: The hits identified from the primary screening were also tested at 10 µM against CHIKV-118-GFP infection in HuH-7 cells and evaluated by resazurin reduction assay (RRA). Resazurin (7-Hydroxy-3H-phenoxazin-3-one 10-oxide) is reduced to the red fluorescent resorufin by redox enzymes produced by viable cells, and is a good indication of metabolic capacity, and by extension cell viability. The amount of converted resorufin was measured as relative fluorescence readout (RFU) at excitation/emission of 531/572 nm using a fluorescence spectrophotometer (Victor^3 V Spectrophotometer, Perkin Elmer, USA). Briefly, cells were inoculated with CHIKV-118-GFP at an M.O.I. of 0.5 and seeded in 384-well plates containing reference and primary hit compounds and incubated under humidified conditions for 72 hrs at 37°C. Resazurin solution was added to a final concentration of 10 µM and further incubated for another 12 hrs prior to measurement of RFU. The percent activity of the compounds, reflected by the percent cell viability, was quantified by normalizing against the RFUs of MOCK-infected cells and CHIKV-118-GFP-infected cells. Compounds resulting in normalized RFU ≥70% were considered as positive hits for anti-CHIKV activity.
To confirm the compound activity against dengue viruses, the selected hits from the primary screening were tested in a 10-pt. DRC (2-fold serial dilution from 50 µM) using the same assay described for the dengue HT/HCA. Each concentration of the hit compounds was tested in duplicate wells. Data generated from image analysis of the 10-pt. DRC was plotted and analyzed using the non-linear regression formula: log (inhibitor) vs. response – […] (4 parameters) in GraphPad Prism 5.04. […] Compound toxicity was determined by testing the hit compounds in a 10-pt. DRC against Huh-7.5 in the absence of viral infection and measuring the cell viability using resazurin reduction assay as described above. […] Confirmed hits were selected based on their Selectivity Index (SI), a dimensionless value that indicates the magnitude between cytotoxic concentration and effective concentration, and is calculated as: SI = CC50/EC50.

[6] = tested on: DENV2 (BR DEN2 01-01) infection in Huh-7.5; experiment: image-based dengue HT/HCA, 10-pt dose-response hit confirmation, DENV2; type: cell-based; conditions: Dengue virus, read-out: EC50 DENV2
Protocol: as §1, §2, §3, §4

[7] = percent infection normalized against DENV2-infected Huh-7.5, M.O.I. 0.5, read-out: IC50
[8] = DENV4, Huh7.5, Huh-7.5, M.O.I. 0.5, 96 hrs
[9] = DENV1, Huh7.5, Huh-7.5, M.O.I. 0.5, 96 hrs
[10] = DENV3, Huh7.5, Huh-7.5, M.O.I. 0.5, 96 hrs
[11] = DENV2, Huh7.5, Huh-7.5, M.O.I. 0.5, 96 hrs

Row | Structure (SMILES) | CC50 (Huh-7.5) | IC50 [1, 7] | EC50 [2, 8] | EC50 [3, 9] | EC50 [4, 10] | CC50 at 72 h [5] | EC50 [6, 11] | also measured
1 | C=CCNC(=O)c1cc([N+](=O)[O-])cc2c(=O)[nH]c(Nc3ccc(Cl)c(Cl)c3)nc12 [AZ 10417808] | 148 µM | 82.3 µM | – | – | – | – | – | –
2 | CCN(CC)CC1CCN(c2ncc3ncnc(Nc4ccc(F)c(Cl)c4)c3n2)CC1 [BIBU 1361] | 4.5 µM | 4.34 µM | – | – | – | – | – | –
3 | NC(Cc1ccc(Cl)cc1)c1csc(Nc2ccc(S(N)(=O)=O)cc2)n1 (stereo not shown) [CND0968] | – | – | 1.1 µM | > 25 µM | 6.2 µM | 29 µM | 6.4 µM | –
4 | CCCc1cnc(Nc2nc(C(N)Cc3ccccc3)cs2)nc1 (stereo not shown) [CND0975] | – | – | > 50 µM | 1 µM | > 50 µM | 44 µM | 5.5 µM | –
5 | COc1ccc(CC(N)c2csc(Nc3nccc(NCc4ccco4)n3)n2)cc1 (stereo not shown) [CND1020] | – | – | – | 3.9 µM | – | 25 µM | – | EC50 ([2]; DENV4, Huh7.5, 96 h): 19 µM; EC50 ([4]; DENV3, Huh7.5, 96 h): 3.4 µM; EC50 ([6]; DENV2, Huh7.5, 96 h): 13 µM
6 | NC(Cc1ccccc1)c1csc(Nc2ccccn2)n1 (stereo not shown) [CND1043] | – | – | 6.9 µM | – | 5.7 µM | 43 µM | 3.1 µM | EC50 ([3]; Huh7.5, 96 h): 4.1 µM
7 | COc1cccc(Nc2nc(C(N)CC(C)C)cs2)n1 (stereo not shown) [CND1057] | – | – | 10 µM | 3.3 µM | 2.9 µM | 23 µM | 1 µM | –
8 | NC(Cc1ccc(C(F)(F)F)cc1)c1csc(Nc2ncccn2)n1 (stereo not shown) [CND1081] | – | – | 12 µM | 1.5 µM | 3.1 µM | > 100 µM | 2.1 µM | –
9 | NC(Cc1ccc(C(F)(F)F)cc1)c1csc(Nc2nccc(NCCCO)n2)n1 (stereo not shown) [CND1172] | – | – | 7.5 µM | 7.3 µM | 4.8 µM | 15 µM | 10.4 µM | –
10 | CS(=O)(=O)c1cnc(Nc2nc(C(N)Cc3ccc(Cl)cc3)cs2)nc1 (stereo not shown) [CND1244] | – | – | 4.4 µM | 1.7 µM | 1.6 µM | 21 µM | 2.9 µM | –
11 | CCN(CC)CCCC(C)Nc1ccnc2cc(Cl)ccc12 (stereo not shown) [Chloroquine] | – | – | – | – | – | – | – | IC50 ([1]; Dengue virus, DENV2, Huh7.5): 17.4 µM
12 | CN1c2cc3c(cc2N=C(c2ccc(C(=O)O)cc2)c2ccccc21)C(C)(C)CCC3(C)C [LE 135] | 23.9 µM | 11.7 µM | – | – | – | – | – | –
13 | Cc1c(-c2ccc(O)cc2)nn(-c2ccc(O)cc2)c1-c1ccc(OCCN2CCCCC2)cc1 [MPP] | 5.86 µM | 6.85 µM | – | – | – | – | – | –
